Source: patent US4147869A, “3,4-Dihydrocarbostyril derivatives and process for preparing the same” (Otsuka Pharmaceutical Co., Ltd., priority 1976, dated 1979)
Structures can show the parent of a compound that is named as a salt. Where two headings read alike, the source gives them in different places.

Key:
β-adrenoreceptor = assay: β-adrenergic blocking activity in anesthetized dogs: antagonism (Inhibition %) of isoprenaline-induced responses; type: in vivo, dog; settings: 300 μg/kg i.v., 10 minutes after; for Inhibition (%) dBP (antagonism to the depression of diastolic blood pressure induced by isoprenaline) / Inhibition (%) HR (antagonism to the increase in heart rate induced by isoprenaline): isoprenaline 1 μg/kg i.v.; for Inhibition (%) AR (antagonism to the depression by isoprenaline in increase of air-way resistance induced by histamine): isoprenaline 1 μg/kg, histamine 5 μg/kg i.v.
Protocol: The β-adrenergic blocking activity of the compounds of this invention was determined as follows:
Male hybrid adult dogs, weighing 10 to 16 kg, were anesthesized with sodium pentobarbital administered intravenously at a level of 30 mg/kg of body weight, and a cannula was inserted into the trachea of each of the anesthesized dogs. In order to avoid blood coagulation, heparin was administered intravenously at a level of 1000 units and thereafter a cannula was inserted into the right femoral artery. The experiments were conducted under artificial respiration at a rate of 20 ml/kg, 18 r.p.m.
The above parameters were continuously recorded on a polygraph (8S 28 Type, tradename of Sanei Sokki Co., Japan). During the experiment, gallamine was administered intravenously at a dosage of 3 mg/kg at one-hour intervals to avoid fluctuation of air-way resistance.
The β-adrenergic blocking activity of each of the test compounds was evaluated in terms of antagonism (Inhibition %) to the depression at the diastolic blood pressure (dBP) and to the increase in the heart rate induced by the intravenous administration of isoprenaline (1 μg/kg) and in terms of antagonism (Inhibition %) to the depression by isoprenaline in increase of air-way resistance which was induced by intravenous administration of histamine (5 μg/kg). In this case, histamine was administered 45 seconds after the administration of isoprenaline.

[1] = acute toxicity (LD50) by intravenous and oral administration; settings: rat, in vivo, fasted 12 hours
Protocol: Further, the acute toxicity of the compounds of the present invention having the formula (I) was determined by intravenous administration (i.v.) and oral administration (p.o.) in 5 to 6 groups of […] (dd strain; body weight, 18 to 22 g; 10 rats in each group) which have been fasted for 12 hours prior to the test.

[2] = iv, male rats, i.v., read-out: LD50 i.v.
[3] = po, male rats, p.o., read-out: LD50 p.o.

| Structure (SMILES) | Inhibition (%) dBP (antagonism to the depression of diastolic blood pressure induced by isoprenaline) (β-adrenoreceptor) | Inhibition (%) HR (antagonism to the increase in heart rate induced by isoprenaline) (β-adrenoreceptor) | Inhibition (%) AR (antagonism to the depression by isoprenaline in increase of air-way resistance induced by histamine) (β-adrenoreceptor) | LD50 ([1]; iv, female rats, i.v., read-out: LD50 i.v.) | LD50 [1, 2] | LD50 ([1]; po, female rats, p.o., read-out: LD50 p.o.) | LD50 [1, 3] |
| --- | --- | --- | --- | --- | --- | --- | --- |
| COc1ccc(CCNCC(O)COc2ccc(NC(C)=O)c3c2CCC(=O)N3)cc1OC (centres unmarked) [compound 2] | 25.5% | 30.2% | 10.8% | 142 mg/kg | 158 mg/kg | 1230 mg/kg | 1350 mg/kg |
| NC(=O)Nc1ccc(OCC(O)CN2CCN(c3ccccc3Cl)CC2)c2c1NC(=O)CC2 (centres unmarked) [compound 9] | 15.3% | 23.6% | 8.9% |  |  |  |  |
| CCOC(=O)Nc1ccc(OCC(O)CNCCOc2ccc(C(N)=O)cc2)c2c1NC(=O)CC2 (centres unmarked) [compound 4] | 3.4% | 47.3% | 2.5% |  | 145 mg/kg |  | 1210 mg/kg |
| CC(=O)Nc1ccc2c(c1OCC(O)CNC(C)C)CCC(=O)N2 (centres unmarked) [compound 1] | 17.8% | 25.3% | 11.3% |  |  |  |  |
| CC(NCC(O)COc1ccc(NC(=O)C2CCCCC2)c2c1CCC(=O)N2)c1ccccc1 (centres unmarked) [compound 5] | 42.4% | 53.3% | 23.2% |  |  |  |  |
| COc1ccc(OCCNCC(O)COc2ccc(NC(N)=O)c3c2CCC(=O)N3)cc1 (centres unmarked) [compound 3] | 31.8% | 39.6% | 14.7% |  | 156 mg/kg |  | 1340 mg/kg |
| COc1ccc(CCNCC(O)COc2cccc3c2CCC(=O)N3)cc1OC (centres unmarked) [compound 13, 5-(3,4-dimethoxyphenethylamino-2-hydroxy)propoxy-3,4-dihydrocarbostyril hydrochloride, reference compound] | 65.6% | 87.2% | 79.1% |  |  |  |  |
| Cc1ccccc1N1CCN(CC(O)COc2ccc(NS(C)(=O)=O)c3c2CCC(=O)N3)CC1 (centres unmarked) [compound 8] | 6.4% | 21.0% | 7.1% |  |  |  |  |
| COc1ccccc1N1CCN(CC(O)COc2ccc(NC(C)=O)c3c2CCC(=O)N3)CC1 (centres unmarked) [compound 10] | 11.6% | 21.7% | 6.2% |  | 125 mg/kg |  | 1170 mg/kg |
| Cc1ccc(S(=O)(=O)Nc2ccc(OCC(O)CNCCOc3ccc(C(N)=O)cc3)c3c2NC(=O)CC3)cc1 (centres unmarked) [compound 7] | 11.4% | 26.8% | 10.2% |  | 115 mg/kg |  | 1120 mg/kg |
| COc1ccc(CCNCC(O)COc2c(NC(C)=O)ccc3c2CCC(=O)N3)cc1OC (centres unmarked) [compound 6] | 11.3% | 37.2% | 12.6% |  | 160 mg/kg |  | 1380 mg/kg |
| CC(C)(C)NCC(O)COc1cccc2c1CCC(=O)N2 (centres unmarked) [compound 11, 5-(3-t-butylamino-2-hydroxy)propoxy-3,4-dihydrocarbostyril hydrochloride, reference compound] | 100% | 100% | 100% |  |  |  |  |
